We go through two molecules from US6998143B1, “Ferric fortification system” (Nestec S.A., priority 1999, dated 2006).

For series [1], the system named is weanling male Sprague-Dawley rats. Put plainly: Iron bioavailability by hemoglobin repletion in anemic rats (slope-ratio). Type of series: in vivo, rat. As to the method: Animals:—The animals used are weanling male Sprague-Dawley rats aged 3 weeks (IFFA-CREDO, L'Arbresle, France).
This diet is casein based and provides for the nutritional requirements of growing rats except for iron.
Diet 1:—The control diet supplemented with the complex of example 2 to provide 10 mg/kg iron.
Diet 2:—The control diet supplemented with the complex of example 2 to provide 20 mg/kg iron.
1) Hemoglobin analysis is performed by anaesthetizing the rats with isoflurane and then drawing a sample of 200 μL of blood from the orbital venous plexus. Blood hemoglobin level in the sample is determined by the cyanmethemoglobin method (Hb kit MPR 3, Bochringer Mannheim GmbH, Germany), using an automated instrument (Hemocue, Baumann-Medical SA, Wetzikon, Switzerland). Commercial quality control blood samples (Dia-HT Kontrollblut, Dia MED, Cressier, Switzerland) having a range of hemoglobin levels are measured with all hemoglobin determinations.
A multiple regression equation relates amounts of iron added to the hemoglobin levels. The equation provides one straight line per diet which intercepts at zero dose.
Procedure:—Rats are housed individually in polycarbonate cages, fitted with stainless steel grids. The animals are allowed free access to distilled water. […] Fresh diet is supplied daily. Spoiling of diet by rats is reduced by covering the diet with a grid.
After 24 days, hemoglobin and weight is determined. Fifty rats with hemoglobin levels between […] are randomized into 5 groups of 10 having approximately equal mean hemoglobin and body weight. Each group of animals is fed one of the experimental diets for 14 days. The rats are fed the diets ad libitum beginning with 20 g/day at day 0. The rats have free access to distilled water. Individual food consumption is measured daily. After 14 days, the rats are weighed and hemoglobin is determined.

Series [2] is described as follows: Lipid oxidation induction time in fish oil (Rancimat). Type of series: physicochemical. Particulars: fish oil in place of chicken fat, 100° C. As to the method: The powder of example 3 is added to chicken fat to provide 40 mg of iron per 1000 g of fat. As a negative control, ferric sulfate is added to chicken fat to provide the same iron loading. Chicken fat without any added iron is used as a positive control.
The fat samples are heated to 100° C. and the lipid oxidation induction time is determined using a Rancimat. No difference in induction time between the fat fortified with the powder of example 3 and the positive control is determined. The induction time of the negative control is 30 to 40% less.
The procedure of example 8 is repeated except that fish oil is used in place of chicken fat. The results are similar.

[3] abbreviates: diet with 10 mg/kg added Fe for 14 days.
The mark [4] stands for this setting: diet with 20 mg/kg added Fe for 14 days.

SMILES strings stand for the structures.

Take `O.O.O.O.O.O.O.O=S(=O)([O-])[O-].[Fe+2]` [FeSO4.7H2O, ferrous sulfate heptahydrate]: the “Initial hemoglobin, mean (standard deviation)” value in series [1] (baseline before diet with 10 mg/kg added Fe) is 5.12 (0.41) g/dl; in series [1] (baseline before diet with 20 mg/kg added Fe), 5.12 (0.40) g/dl. The “Difference in hemoglobin (final minus initial), mean” value in series [1] (setting [3]) came out at 3.54 g/dL; in series [1] (setting [4]) it was 6.41 g/dL. In addition, the results for the “Final hemoglobin, mean” value in series [1] (setting [3]) and in series [1] (setting [4]) were 8.66 g/dL and 11.53 g/dL, respectively.

Consider `O=S(=O)([O-])[O-].O=S(=O)([O-])[O-].O=S(=O)([O-])[O-].[Fe+3].[Fe+3]` [ferric sulfate], for which, in series [2], the “lipid oxidation induction time results compared with those of example 8” value was “similar”.
